Experimental data: US7018618B2, “Stable pharmaceutical solution formulations for pressurized metered dose inhalers” (Chiesi Farmaceutici S.p.A., priority 2000, dated 2006)

How the values were obtained:
Assay type in all cases: physicochemical
[1] = Effect of hydrochloric acid on solution pH′ (acidity function) in model vehicle HFA 43-10MEE (Vertrel XF); settings: titrated with a strong acid in model vehicle HFA 43-10MEE (Vertrel XF)
Description: The meter reading represents an apparent pH or acidity function (pH′).
(a) 1.0 M hydrochloric acid was added incrementally to 50 mL of HFA 43-10MEE (Vertrel XF) containing 20% w/w ethanol and pH′ measured after each aliquot of acid.

[2] = Stability of acidified TA 2005-HFA 134a solutions in cans coated with a fluorocarbon polymer; settings: for stability (in words): almost three months at 50° C.
Description: (§1) Each value is expressed as percent nominal drug concentration.

[3] = as above
[4] = Stability of acidified formoterol/BDP-HFA 134a solutions in cans coated with a fluorocarbon polymer; settings: HFA 134a/12% ethanol/0.4% isopropyl myristate, 3.25 μl 1.0 M HCl
Description: as §1

COc1ccc(C[C@@H](C)NC[C@H](O)c2ccc(O)c3[nH]c(=O)ccc23)cc1 [TA 2005, 8-hydroxy-5-[(1R)-1-hydroxy-2-[[(1R)-2-(4-methoxyphenyl)-1-methylethyl]amino]ethyl]-2(1H)-quinolinone]
pH′ down to which the titration profile is shallow, thereafter the acidity function drops abruptly [1]: ~5.0 | percent nominal drug concentration ([2]; 1.0 μl 0.08 M HCl per can (apparent pH about 4.8), 50° C., 22 days upright): 98.3 percent nominal | percent nominal drug concentration ([2]; 1.0 μl 0.08 M HCl per can (apparent pH about 4.8), 50° C., 83 days upright): 99.4 percent nominal | percent nominal drug concentration ([2]; 1.0 μl 0.08 M HCl per can (apparent pH about 4.8), Initial, HFA 134a/12% ethanol/1.0% isopropyl myristate, coated cans): 100.0 percent nominal | percent nominal drug concentration ([2]; 1.4 μl 0.08 M HCl per can (apparent pH about 3.2), 50° C., 22 days upright): 98.2 percent nominal | percent nominal drug concentration ([2]; 1.4 μl 0.08 M HCl per can (apparent pH about 3.2), 50° C., 83 days upright): 98.8 percent nominal | percent nominal drug concentration ([2]; 1.4 μl 0.08 M HCl per can (apparent pH about 3.2), Initial): 100.0 percent nominal | percent nominal drug concentration ([2]; 1.8 μl 0.08 M HCl per can (apparent pH about 2.9), 50° C., 22 days upright): 90.2 percent nominal | percent nominal drug concentration ([2]; 1.8 μl 0.08 M HCl per can (apparent pH about 2.9), 50° C., 83 days upright): 88.1 percent nominal | percent nominal drug concentration ([2]; 1.8 μl 0.08 M HCl per can (apparent pH about 2.9), Initial): 100.0 percent nominal | stability (in words) ([2]; apparent pH between 3.0 and 5.0, stable = much less than 10% loss of drug): stable | stability (in words) ([2]; apparent pH of less than 3): not | apparent pH ([3]; 1.0 μl 0.08 M hydrochloric acid per can, 3.5 μg/50 μl in HFA 134a/12% ethanol/1.0% isopropyl myristate): about 4.8 | apparent pH ([3]; 1.4 μl 0.08 M hydrochloric acid per can): ~3.2 | apparent pH ([3]; 1.8 μl 0.08 M hydrochloric acid per can): ~2.9

CCC(=O)OCC(=O)[C@@]1(OC(=O)CC)[C@@H](C)C[C@H]2[C@@H]3CCC4=CC(=O)C=C[C@]4(C)[C@@]3(Cl)[C@@H](O)C[C@@]21C [BDP, beclometasone dipropionate]
percent nominal drug concentration ([4]; 4° C., 64 days inverted): 100.10 percent nominal | percent nominal drug concentration ([4]; 4° C., 123 days inverted): 102.6 percent nominal | percent nominal drug concentration ([4]; Initial): 99.4 percent nominal
